Data reported in PMC12509006, “Synthesis and Evaluation of Pyridine-Based Antibacterial Agents that Inhibit ATP Synthase in Acinetobacter baumannii” (ACS Omega, 2025).
Values after ≈ are worked out from the molar mass of the structure shown. Read-outs that look alike come from different tables or passages of the source.

Assays:
HEK 293 cells = assay: XTT cell viability cytotoxicity assay; details: n = 3, 24 h treatment
MDR AB BAA 1605 = assay: Broth microdilution antimicrobial susceptibility assay, MDR isolate; details: Acinetobacter baumannii, BAA1605, read-out: MIC, MDR AB BAA 1605
AB ATCC 17978 = assay: Broth microdilution antimicrobial susceptibility assay, susceptible isolate; details: Acinetobacter baumannii, ATCC17978, read-out: MIC, AB ATCC 17978
[1] = biological target: T1, A. baumannii ATP synthase (Acinetobacter baumannii, UniProt A3M139); assay: AB ATP synthase inhibition: NADH-driven ATP synthesis in inverted inner membrane vesicles, luciferin/luciferase readout; type: biochemical; details: for Hill coefficient (Hill slope): fit of ATP synthesis dose response curve
T1 construct: endogenous electron transport chains of inverted inner membrane vesicles were energized with NADH; endogenous in cells; host or cells: inverted inner membrane vesicles prepared from A. baumannii ATCC 17978 cells
Description: Once synthesized, the pyridine compounds were tested for their ability to inhibit ATP synthase activity using our previously reported luciferin/luciferase assay. Briefly, endogenous electron transport chains of inverted inner membrane vesicles were energized with NADH to generate a proton gradient and to drive ATP synthesis. ATP was measured via luminescence from the luciferase-catalyzed oxidation of D-luciferin. Luminescence activities across increasing inhibitor concentrations were corrected for gradient independent background sources of ATP by comparison with a control containing the protonophore CCCP (carbonyl cyanide 3-chlorophenylhydrazone). The data were then fit to a four-parameter logistic dose–response curve, from which IC50 values and Hill coefficients were determined using a nonlinear least-squares regression.
A. baumannii (ATCC 17978) cells were grown in LB medium at 37 °C with shaking at 150 rpm and harvested by centrifugation in the late exponential phase of growth. Cells were resuspended in TMG buffer (50 mM Tris-HCl, pH 7.5, 5 mM MgCl2, 10% v/v glycerol) with 1 mM phenylmethanesulfonyl fluoride, 1 mM dithiothreitol, and a small amount of DNase and lysed by two passes through an Avestin B15 homogenizer at 19,000 psi. Lysate was cleared by centrifugation at 9000g and inverted membrane vesicles were collected from the supernatant by centrifugation at 169,000g. To reduce background ATP synthesis activity in AB vesicles, it was important to wash the membranes by resuspending in TMG buffer and centrifuging again at 169,000g. Washed pellets were resuspended in TMG buffer, and aliquots were stored at −80 °C. Once thawed, aliquots were not refrozen. Protein concentration in membrane vesicles was determined using a modified Lowry assay.
In vitro ATP synthesis activity of inverted inner membrane vesicles was measured as previously described. A reaction solution was prepared containing 5 mM tricine-KOH, pH 8.0, 50 mM KCl, 2.5 mM MgCl2, 0.1 mM adenosine diphosphate, 3.75 mM potassium phosphate, and 2.5 mM NADH and distributed into a 96-well plate. NADH-driven ATP synthesis was initiated by addition of inverted vesicles to 50 μg/mL and allowed to proceed for 10 min. The reaction was stopped by transferring an aliquot into 1% trichloroacetic acid. The stopped reaction was diluted 100-fold with deionized water and a sample was transferred to luciferase solution containing 25 mM tricine-NaOH, pH 7.8, 5 mM MgSO4, 0.1 mM EDTA, 0.1 mM NaN3, 150 μg/mL luciferin, and 7.5 μg/mL luciferase. Luminescence was measured in an opaque white 96-well plate using a BioTek H1 multimode plate reader. Each replicate set included a positive control containing DMSO with no compound and a negative control containing carbonyl cyanide 3-chlorophenylhydrazone (CCCP). Luminescence values were corrected for background by subtracting the CCCP control and normalized to the luminescence of the DMSO control. Normalized activity was fit using a variable-slope dose response curve. Nonlinear regression, including prediction of 95% confidence bands, and pairwise comparisons of fits using the F-test method were completed using GraphPad Prism10. Relativeactivity=1/1+(c/IC50)^Hillslope […]
Figure S1. ATP synthesis inhibition by all pyridine compounds in order of WSA compound number. ATP synthesis activities in inverted inner membrane vesicles prepared from AB cells were measured in the presence of 0.0625-64 µg/mL, corrected for background ATP, and normalized to activity with DMSO alone (see methods). For each plot, dots are normalized activities at each concentration (n≥3) on a log 2 scale, solid lines are fitted dose response curves, and dashed lines show the 95% confidence range of the fit. IC50

[2] = inverted inner membrane vesicles, 0.0625-64 µg/mL, n≥3, Table S1, read-out: AB ATP Synthase Inhibition IC50 (converted)
[3] = Figure 2, read-out: IC50, AB ATP synthase inhibition (converted)

T1 sequence (A3M139 whole entry): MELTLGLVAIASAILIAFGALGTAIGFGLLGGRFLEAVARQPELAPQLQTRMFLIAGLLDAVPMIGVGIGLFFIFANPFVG

Structure (SMILES) | MIC, HEK 293 (cytotoxicity) (HEK 293 cells) [µg/mL] | MIC (MDR AB BAA 1605) [µg/mL] | MIC (AB ATCC 17978) [µg/mL] | Hill coefficient (Hill slope) [1] | IC50 [1, 2] [nM] | IC50 [1, 3] [nM]
COc1nc2ccc(Br)cc2cc1[C@@H](c1ccccc1)[C@@](O)(CCN(C)C)c1cccc2ccccc12 [Bedaquiline, bedaquiline, reference compound] | > 32 | – | – | – | – | –
CNC(C)C1CCC(N)C(OC2C(N)CC(N)C(OC3OCC(C)(O)C(NC)C3O)C2O)O1 (stereo not shown) [Gentamicin, reference compound] | – | > 16 | 8 (≈ 16.8 µM) | – | – | –
CCN1CCC(CCNCc2cccnc2SCc2ccccc2)CC1 [WSA 264] | – | > 128 | > 128 | -0.8 | 83900 | –
c1ccc(CSc2ncccc2CNCCC2CCN(C3CCCC3)CC2)cc1 [WSA 265] | – | > 128 | > 128 | -0.7 | 132000 | –
c1ccc(CSc2ncccc2CNCc2ccc(CN3CCCC3)cc2)cc1 [WSA 267] | – | 128 (≈ 317 µM) | 128 (≈ 317 µM) | -0.7 | 91700 | –
CN1CCN(CCNCc2cccnc2SCc2ccccc2)CC1 [WSA 268] | – | > 128 | > 128 | -0.5 | > 180000 | –
CN1CCN(CCNCc2cc(Br)cnc2SCc2ccccc2)CC1 [WSA 271] | 64 (≈ 147 µM) | > 128 | > 128 | -0.7 | 2300 | –
CCN1CCC(CCNCc2cc(Br)cnc2SCc2ccccc2)CC1 [WSA 272] | 32 (≈ 71.4 µM) | 128 (≈ 285 µM) | 128 (≈ 285 µM) | -0.6 | 4460 | –
CN1CCN(CCNCc2cc(-c3ccccc3)cnc2SCc2ccccc2)CC1 [WSA 277] | 16 (≈ 37 µM) | 128 (≈ 296 µM) | 32 (≈ 74 µM) | -0.7 | 2170 | –
COc1ccc(-c2cnc(SCc3ccccc3)c(CNCCN3CCN(C)CC3)c2)cc1 [WSA 278] | 16 (≈ 34.6 µM) | 128 (≈ 277 µM) | 64 (≈ 138 µM) | -0.8 | – | 2070
COc1ccc(-c2cnc(SCc3ccccc3)c(CNCCC3CCN(C4CCCC4)CC3)c2)cc1F [WSA 290] | 4 (≈ 7.49 µM) | 32 (≈ 60 µM) | 32 (≈ 60 µM) | -0.7 | 356 | –
Fc1ccc(-c2cnc(SCc3ccccc3)c(CNCCC3CCN(C4CCCC4)CC3)c2)cc1 [WSA 291] | <2 | 32 (≈ 63.5 µM) | 32 (≈ 63.5 µM) | -1.1 | 1190 | –
Fc1ccc(-c2cnc(SCc3ccccc3)c(CNCCC3CCN(C4CCCC4)CC3)c2)c(F)c1 [WSA 292] | 4 (≈ 7.67 µM) | 32 (≈ 61.3 µM) | 16 (≈ 30.7 µM) | -1.1 | 997 | –
Brc1cnc(SCc2ccccc2)c(CNCc2ccc(CN3CCCC3)cc2)c1 [WSA 293] | 64 (≈ 133 µM) | 64 (≈ 133 µM) | 32 (≈ 66.3 µM) | -1.2 | 3730 | –
c1ccc(CSc2ncc(-c3ccccc3)cc2CNCc2ccc(CN3CCCC3)cc2)cc1 [WSA 294] | 8 (≈ 16.7 µM) | 32 (≈ 66.7 µM) | 32 (≈ 66.7 µM) | -0.7 | – | 1230
Cc1ccc(-c2cnc(SCc3ccccc3)c(CNCc3ccc(CN4CCCC4)cc3)c2)cc1 [WSA 295] | 16 (≈ 32.4 µM) | 128 (≈ 259 µM) | 32 (≈ 64.8 µM) | -0.7 | 1090 | –
COc1ccc(-c2cnc(SCc3ccccc3)c(CNCc3ccc(CN4CCCC4)cc3)c2)cc1 [WSA 296] | 16 (≈ 31.4 µM) | 128 (≈ 251 µM) | 32 (≈ 62.8 µM) | -0.6 | – | 863
COc1ccc(-c2cnc(SCc3ccccc3)c(CNCc3ccc(CN4CCCC4)cc3)c2)cc1F [WSA 297] | 8 (≈ 15.2 µM) | 128 (≈ 243 µM) | 32 (≈ 60.6 µM) | -0.8 | – | 796
Fc1ccc(-c2cnc(SCc3ccccc3)c(CNCc3ccc(CN4CCCC4)cc3)c2)c(F)c1 [WSA 299] | 16 (≈ 31 µM) | 128 (≈ 248 µM) | 32 (≈ 62.1 µM) | -1.1 | 2130 | –
CCN1CCC(CCNCc2cc(-c3ccc(C)cc3)cnc2SCc2ccccc2)CC1 [WSA 300] | 4 (≈ 8.7 µM) | 32 (≈ 69.6 µM) | 16 (≈ 34.8 µM) | -0.7 | 674 | –
Brc1cnc(SCc2ccccc2)c(CNCCC2CCN(C3CCCC3)CC2)c1 [WSA 301] | 16 (≈ 32.8 µM) | > 128 | 128 (≈ 262 µM) | -0.5 | 2660 | –
c1ccc(CSc2ncc(-c3ccccc3)cc2CNCCC2CCN(C3CCCC3)CC2)cc1 [WSA 302] | 16 (≈ 32.9 µM) | 64 (≈ 132 µM) | 64 (≈ 132 µM) | -0.8 | – | 988
CN(C)c1ccc(-c2cnc(SCc3ccccc3)c(CNCCC3CCN(C4CCCC4)CC3)c2)cc1 [WSA 303] | 4 (≈ 7.56 µM) | 128 (≈ 242 µM) | 64 (≈ 121 µM) | -1.2 | 1190 | –
CCN1CCC(CCNCc2cc(-c3ccccc3)cnc2SCc2ccccc2)CC1 [WSA 304] | 8 (≈ 18 µM) | 64 (≈ 144 µM) | 32 (≈ 71.8 µM) | -0.7 | 1370 | –
